Patent publication US20140370177A1, “COMPOSITIONS” (Givaudan S.A., priority 2011, published 2014)

Tests used:
Type in all cases: in vivo, human
experienced tasters = assay: Comparison of upfront sweetness on top of 5% sucrose solution, 5 experienced tasters
Procedure: Two mixtures, stevioside/rebaudioside A (3:1) and (2:1) were evaluated for their upfront sweetness in comparison with pure stevioside and rebaudioside A. Sensory evaluation was carried out with 5 experienced tasters. 30 ppm of stevioside/rebaudioside A (3:1), (2:1), and Rebaudioside A on top of 5% sucrose solution were prepared along with 20, 35, 45, 75 ppm stevioside in 5% sucrose solutions. Samples were prepared fresh and at room temperature and were paired and tasted with water rinsing in-between.

[1] = tested on: sweet sensitive panelists; assay: Ranking test in water, sucrose iso-intensity, formal sensory panel (R-index); settings: for More Sweet Sample / R-index: in water
Procedure: (§1) The sensory evaluation was conducted using a ranking method. Samples at ambient temperature were randomly presented in 20 ml blind aliquots (unidentifiable by panelists). Panels consisted of 20 sweet sensitive subjects and samples were presented in 2 replications over 1 session. After tasting each sample, the mouth was rinsed thoroughly with water at ambient temperature prior to tasting the next sample. Panelists were presented with 0.5%, 1.0%, and 1.5% sucrose solutions in water and two samples of stevioside/rebaudioside A at 30 and 45 ppm in water, respectively. Subjects were asked to rank the samples from low to high with respect to perceived sweet taste. R-indices were calculated for 30 and 45 ppm stevioside/rebaudioside A samples versus either 0.5%, 1.0% or 1.5% sucrose.
The sensory evaluation was conducted using the same method as described in Example 4. Panels consisted of 20 sweet sensitive subjects and samples were presented in 2 replications over 1 session. Panelists were presented with 20 mL of 0.5%, 1.0%, and 1.5% sucrose solutions in water and two samples of stevioside/rebaudioside A (3:1) at 35 and 40 ppm in water, respectively. Subjects were asked to rank the samples from low to high with respect to perceived sweet taste. R-indices were calculated for 35 and 40 ppm stevioside/rebaudioside A samples versus either 0.5%, 1.0% or 1.5% sucrose.
Two ounces of each sample was presented in random order to 20 sweet sensitive panelists. In two replications (over 1 session), Panelists were asked to rank the samples from least sweet to most sweet. The data were subjected to an R-index analysis.

[2] = tested on: sweet sensitive panelists; assay: Iso-intensity in 5% sucrose solution (sweetness enhancement), formal sensory panel (R-index)
Procedure: as §1
The sensory evaluation was conducted using the same method as described in Example 4. Panels consisted of 20 sweet sensitive subjects and samples were presented in 2 replications over 1 session. Panelists were presented with 20 mL of 5.5%, 6.0%, 6.5%, 7.0%, 8.0% sucrose solutions and one sample of 35 ppm stevioside/rebaudioside A in 5.0% sucrose, respectively. Subjects were asked to rank the samples from low to high with respect to perceived sweet taste. R-indices were calculated for 35 ppm stevioside/rebaudioside A in 5.0% sucrose sample versus either 6.0%, 6.5%, 7.0% or 8.0% sucrose.
The objective of this test was to determine the extent to which stevioside enhances sweetness perception of a 5% sucrose solution.
This example examined the effect of 30 ppm rebaudioside A on top of 5% sucrose.

[3] = 30 ppm Stevioside vs. 0.5% sucrose
[4] = 30 ppm Stevioside vs. 1.0% sucrose
[5] = 30 ppm Stevioside vs. 1.5% sucrose
[6] = 30 ppm Stevioside vs. 40 ppm Stevioside
[7] = 40 ppm Stevioside vs. 0.5% sucrose
[8] = 40 ppm Stevioside vs. 1.0% sucrose
[9] = 40 ppm Stevioside vs. 1.5% sucrose
[10] = 5% sucrose + 35 ppm Stevioside vs. 5.0% sucrose
[11] = 5% sucrose + 35 ppm Stevioside vs. 6.0% sucrose
[12] = 5% sucrose + 35 ppm Stevioside vs. 7.0% sucrose
[13] = 5% sucrose + 30 ppm RebA vs. 5% sucrose
[14] = 5% sucrose + 30 ppm RebA vs. 6% sucrose
[15] = 5% sucrose + 30 ppm RebA vs. 7% sucrose

Question: Which results are given for C=C1C[C@@]23CC[C@H]4[C@@](C)(CCC[C@@]4(C)C(=O)O[C@@H]4O[C@H](CO)[C@@H](O)[C@H](O)[C@H]4O)[C@@H]2CC[C@]1(O[C@@H]1O[C@H](CO)[C@@H](O)[C@H](O)[C@H]1O[C@@H]1O[C@H](CO)[C@@H](O)[C@H](O)[C@H]1O)C3 [Stevioside, stevioside]?
Answer: Description of upfront sweetness (experienced tasters; 20, 35, 45, 75 ppm in 5% sucrose solutions): delayed onset and lack of the upfront sweetness; Ranking of sweetness (experienced tasters; 75 ppm in 5% sucrose solution): ranked as the sweetest but not the most upfront one; More Sweet Sample [1, 3]: 30 ppm; R-index [1, 3]: 25.625; More Sweet Sample [1, 4]: 1.0% sucrose; R-index [1, 4]: 66.938; More Sweet Sample [1, 5]: 1.5% sucrose; R-index [1, 5]: 94.750; More Sweet Sample [1, 6]: 40 ppm; R-index [1, 6]: 80.188; Sucrose equivalence of sweetness by interpolation ([1]; 30 ppm in water): 0.75 % sucrose; Isosweet sucrose concentration determined from 30 and 40 ppm data ([1]; 35 ppm in water): 1.0 % sucrose; More Sweet Sample [1, 7]: 40 ppm; R-index [1, 7]: 11.375; More Sweet Sample [1, 8]: 40 ppm; R-index [1, 8]: 29.094; More Sweet Sample [1, 9]: 1.5% sucrose; R-index [1, 9]: 82.219; Sucrose equivalence of sweetness by interpolation ([1]; 40 ppm in water): 1.25 % sucrose; More Sweet Sample [2, 10]: 5% sucrose +; R-index [2, 10]: 8.281; More Sweet Sample [2, 11]: 5% sucrose +; R-index [2, 11]: 21.094; More Sweet Sample [2, 12]: 7.0% sucrose; R-index [2, 12]: 78.125; Iso-sweet sucrose concentration by interpolation ([2]; 35 ppm in 5% sucrose): 6.5 % sucrose; Additional sucrose equivalence (sweetness enhancing effect) ([2]; 35 ppm on top of 5% sucrose): 0.5 % sucrose equivalence

Question: How did the Iso-intense sucrose concentration ([1]; 30 ppm, iso-intensity study) turn out when C=C1C[C@@]23CC[C@H]4[C@@](C)(CCC[C@@]4(C)C(=O)O[C@@H]4O[C@H](CO)[C@@H](O)[C@H](O)[C@H]4O)[C@@H]2CC[C@]1(O[C@@H]1O[C@H](CO)[C@@H](O)[C@H](O[C@@H]2O[C@H](CO)[C@@H](O)[C@H](O)[C@H]2O)[C@H]1O[C@@H]1O[C@H](CO)[C@@H](O)[C@H](O)[C@H]1O)C3 [rebaudioside A] was run?
Answer: 1 % sucrose

Question: What about the More Sweet Sample [2, 13] of the same compound?
Answer: 5% sucrose +

Question: What about the R-index [2, 13] of the same compound?
Answer: 1.313

Question: What about the More Sweet Sample [2, 14] of the same compound?
Answer: 5% sucrose +

Question: And the R-index [2, 14]?
Answer: 22.625

Question: And the More Sweet Sample [2, 15]?
Answer: 7% sucrose

Question: What about the R-index [2, 15] of the same compound?
Answer: 89.000

Question: What about the “Isosweet sucrose concentration by interpolation” value ([2]; 30 ppm in 5% sucrose) of the same compound?
Answer: 6.5 % sucrose

Question: And the “Sucrose equivalence in enhancement” value ([2]; 30 ppm on top of 5% sucrose)?
Answer: 0.5 % sucrose equivalence
